Assay results as given in patent publication US11866424B2, “Aggregation-induced emission luminogens for photodynamic therapy” (The Hong Kong University of Science and Technology, priority 2020, dated 2024).

Tests used:
4T1 cells = experiment: 4T1 cell imaging / co-localization with commercial organelle probes; type: cell-based; conditions: for organelle towards which strong affinity is exhibited: 4T1 cell line; for Pearson's coefficient (co-localization): 4T1 cells, co-staining with commercial probes
Protocol: Similar co-staining procedure for Hela cell was applied on 4T1 cell. The calculated Pearson's coefficient was 0.90 for TFPy, 0.91 for TFVP, and 0.90 for TPE-TFPy.
Motivated by the excellent targetability and specificity of three diverse organelle-targeting AIEgens, photostability was also carefully investigated as it is an essential parameter to evaluate a fluorescence imaging agent. Photostability assessment was carried out by continuous irradiation and sequential scanning with confocal microscope. […] With HeLa cell imaging and photostability data in hand, additional cellular uptake experiment using 4T1 cell line was performed as preliminary study for in vivo experiment.

HeLa cells = experiment: HeLa cell imaging / co-localization with commercial organelle probes (CLSM); type: cell-based; conditions: for subcellular organelle visualized after incubation: CLSM, excitation 488 nm; for Pearson's coefficient (co-localization efficiency): co-staining with MitoTracker Green (TFPy), CellMask Green (TFVP), LysoTracker Green (TPE-TFPy)
Protocol: Hela cells were seeded and cultured at 37° C. in a 35 mm glass-bottomed dish. After incubation with TFPy (1 μM), TFVP (5 μM), or TPE-TFPy (2 μM), the cells were washed with PBS three times and subjected to imaging analysis using a Zeiss Laser Scanning Confocal Microscope. All of three AIEgens can be excited with 488 nm filter and the emission filter was 570-740 nm. For co-staining assay, the TFPy, TFVP, and TPE-TFPy loaded Hela cells were subjected to incubation with MitoTracker Green, CellMask Green, and LysoTracker Green, respectively. Hoechst 33258 (5 μM) was also utilized to stain nuclear DNA to assist visualizing. Afterwards, the cells were washed with PBS and then observed with CLSM. The cells were imaged using appropriate excitation and emission filters for each dye. The co-localization efficiency was analyzed with Olympus FV10-ASW software, in which the calculated Pearson's coefficient was 0.90 for TFPy, 0.91 for TFVP, and 0.90 for TPE-TFPy. A stock solution of three AIEgens comprising of 1 μM TFPy, 10 μM TFVP, and 1 μM TPE-TFPy was utilized to incubate with Hela cells, followed by imaging analysis excited with 488 nm filter.
In vitro cellular imaging was carried out to evaluate their subcellular organelle targeting property by confocal laser scanning microscopy (CLSM) using HeLa cell as model cell line. Thanks to the analogous maximum absorption of three AIEgens, fluorescence images can be acquired simultaneously using the same excitation at 488 nm. […] Besides, when HeLa cells were cultured with these three AIEgens simultaneously, all of mitochondria, cell membrane and lysosome were highly emissive (FIG. 3D). It was inferred that the mitochondria-staining behavior of TFPy could be attributed to its high efficiency of electrophoretic transmembrane migration, as well as appropriate binding ability between positively charged pyridinium moiety and the negatively charged interior of the transmembrane potential of mitochondria. The low permeability coefficients resulted from the quite high free energy barrier of TFVP at membrane center could lead to its specific accumulation. In the case of TPE-TFPy, it tends to form nano-sized aggregates in culture media due to the high hydrophobicity, and the in-situ generated aggregates can internalize into lysosome of HeLa cells through endocytosis and specifically light up lysosome upon photoexcitation.

HeLa cell = experiment: MTT cytotoxicity / PDT assay, HeLa cell line; type: cell-based; conditions: 5 μM, white light 20 min (20 mW/cm^2)
Protocol: 3-(4,5-Dimethylthiazol-2-yl)-2,5-diphenyltetrazolium bromide (MTT) assay was utilized to quantitatively measure the cytotoxicity of TFPy, TFVP, TPE-TFPy, and three in one group based on both Hela cell line and 4T1 cell line. The three in one group was consist of one third concentration of TFPy, TFVP, and TPE-TFPY. Both cancer cell lines were seeded in DMEM media in a 96-well round-bottom microplate with a density of 1×10^4 cells per well. The AIEgens (TFPy, TFVP, TPE-TFPy, and three in one) were added at different concentrations of 0, 0.25, 0.5, 1, 2.5, and 5 μM after replacing the medium, and was incubated with different cell lines respectively for 20 min, followed by irradiation with white light for 20 min (20 mW/cm^2); and another array of plates with cells were kept in the dark as control. After 24 h incubation, 10 uL MTT (5 mg/mL in PBS) was added into each well. 4 hours later, DMSO was added into wells to dissolve the precipitated formazan. Finally, the absorption of each well at 595 nm was recorded via a plate reader (Perkin-Elmer Victor3™). Each trial was performed with 6 wells in parallel.
Cytotoxicity of photosensitizer is a non-negligible factor to take into consideration. […] Consequently, quantitative evaluation of PDT effect was applied on both HeLa Cell and 4T1 cell line through standard methylthiazolyldiphenyltetrazolium bromide (MTT) assay. Each AIEgen and an experimental group named “three in one” were evaluated. The “three in one” group was comprised of one third concentration of each AIEgen (⅓ TFPy, ⅓ TFVP, and ⅓ TPE-TFPy) to assure the overall concentration as same as other experimental groups. […] However, upon irradiation with light for 20 min, HeLa cell suffered severe viability loss with only 10% remained when the “three in one” group was at a concentration of 2.5 μM (FIG. 5C).

[1] = ROS generation measurement with ABDA indicator under white light; conditions: 1 μM sample, 10 μM ABDA, DMSO/water 1/100, white light 4.2 mW·cm^−2, up to 6 min; compared with Ce6 and Rose Bengal
Protocol: 9,10-Anthracenediyl-bis(methylene)dimalonic acid (ABDA) was employed to detect ROS generation of TFPy, TFVP, TPE-TFPy, and two commercial standard photosensitizer, Rose Bengal, and Ce6 upon light irradiation. The absorbance of each sample (1 μM) was firstly set as blank. Then, 10 μM of ABDA was mixed to each sample (DMSO/water (v:v)=1/100) in a dark room, and the absorbance of sample was measured at once. The sample mixture was then irradiated under white light (4.2 mW/cm^−2) at intervals of 1 min until 6 min. The absorption of ABDA at 378 nm was recorded at various irradiation times to obtain the decay rate of photosensitizing process. The absorbance change of ABDA alone in 6 min light irradiation time was also measured as control.
Preliminary study was conducted by evaluating capability of ROS generation of three AIEgens. 9,10-Anthracenediyl-bis-(methylene)-dimalonic acid (ABDA) whose absorption will decrease once oxidized by ROS was utilized as an indicator. […] Ce6 and Rose Bangel, two well-known commercially available standard photosensitizers, were engaged as comparison.

[2] = UV-Vis and photoluminescence spectroscopy (optical properties, AIE characteristics); type: physicochemical; conditions: for λabs: Absorption maximum in DMSO (TFPy and TPE-TFPy) and H2O (TFVP) solution, 10 μM; for λem (Soln.): Emission maximum in DMSO (TFPy and TPE-TFPy) and H2O (TFVP) solution at 10 μM; for ΦF (Aggr.) / ΦF (Soln.) / ΦF (Solid.): Fluorescence quantum yield; for ΦF (Aggr.): aggregation state in 5% DMSO + 95% Toluene or 5% H2O + 95% THF (TFVP); for ΦF (Soln.): calibrated integrating sphere, DMSO (TFPy, TPE-TFPy) or H2O (TFVP) solution; for ΦF (Solid.) / stokes shifts / λem (Solid.): solid state; for λem (Aggr.): aggregation state in 5% DMSO + 95% Toluene (TFPy and TPE-TFPy) or 5% H2O + 95% THF (TFVP); for Iaggr,max/Isoln: emission intensity in 5% DMSO + 95% Toluene (TFPy, TPE-TFPy) or 5% H2O + 95% THF (TFVP) relative to solution; for ε: solution
Excerpt: All the chemicals were purchased from Meryer, J&K, or Sigma as received without further purification. Superdry (99.9%) DCM and methanol with molecular sieves were purchased from J&K Scientific. Toluene was distilled from sodium and benzophenone under nitrogen prior to use. Phosphate buffered saline (PBS) was purchased from Thermo Fisher Scientific. ABDA, Ce6 and Rose Bengal were purchased from Sigma-Aldrich and used as received. Cell culture medium and fetal bovine serum (FBS) were purchased from GIBCO (Gran Island, NY, USA). Mitotracker Green, CellMask Green, and LysoTracker Green were purchased from ThermoFisherScientific. 1H NMR (400 MHz), 13C NMR (100 MHz) spectra were recorded on a Bruker ARX 400 Spectrometer with CDCl3 or d6-DMSO as deuterated solvent. High resolution mass spectra (HRMS) were performed on a Finnigan MAT TAQ 7000 mass spectrometer system operating in matrix-assisted laser desorption/ionization time of flight mass spectrometry (MALDI-TOF) mode. UV-Vis absorption and fluorescence spectra were recorded with Milton Roy Spectronic 3000 array spectrophotometer. Fluorescence images of AIEgens in solution and aggregation state were collected on an Olympus BX 41 fluorescence microscope. Cellular fluorescence images were taken using a Zeiss laser scanning confocal microscope (LSM7 DUO) and analyzed using ZEN 2009 software (Carl Zeiss). Theoretical study was carried out on 6-311G* basis set in Gaussian09 using density functional theory (DFT) approximated by ωB97X-D.
The photophysical properties of TFPy, TFVP and TPE-TFPy were characterized by UV-Vis and photoluminescence spectroscopies at the concentration of 10 μM as shown in FIG. 2 and summarized in Table 1. […] Due to different solubility behavior, the AIE characteristics of TFPy and TPE-TFPy were investigated in DMSO/toluene mixture with different toluene fractions, whereas TFVP was measured in H2O/THF mixture (FIGS. 2C and 2D, FIG. 8). Taking TFVP as an example, TFVP was barely emissive when fully dissolved in water. Upon increasing THF fraction, fluorescence emission intensity got boosted accordingly with a 218-time increment when THF fraction reached 95%. […] In addition, upon the increase of THF or toluene as poor solvent, the emission wavelengths of three AIEgens were blue-shifted owing to the decrease of solvent polarity, manifesting TICT attributes, which is again ascribed to their D-A feature.

Row | λabs [2] [nm] | λem (Soln.) [2] [nm] | ΦF (Aggr.) [2] [%] | ΦF (Soln.) [2] [%] | ΦF (Solid.) [2] [%] | λem (Aggr.) [2] [nm] | Iaggr,max/Isoln [2] | stokes shifts [2] | λem (Solid.) [2] [nm] | ε [2] [M⁻¹ cm⁻¹] | Structure (SMILES) | organelle towards which strong affinity is exhibited (4T1 cells) | Pearson's coefficient (co-localization) (4T1 cells) | subcellular organelle visualized after incubation (HeLa cells) | Pearson's coefficient (co-localization efficiency) (HeLa cells) | cell viability upon light irradiation (HeLa cell) [%] | ROS generation efficacy (decrease of ABDA absorption at 378 nm) [1]
1 | 485 | 686 | 10 | 0.4 | 0.5 | 660 | 12.6 | ca. 200 nm | 672 | 27000 | C[n+]1ccc(C=Cc2ccc(-c3ccc(N(c4ccccc4)c4ccccc4)cc3)o2)cc1.F[P-](F)(F)(F)(F)F [TFPy] | mitochondria | 0.90 | mitochondria | 0.90 | 58 | better than Ce6, but not as efficient as Rose B angel
2 | 492 | 675 | 5 | 0.4 | 0.6 | 672 | 218 | ca. 200 nm | 690 | 28000 | C[N+](C)(C)CCC[n+]1ccc(C=Cc2ccc(-c3ccc(N(c4ccccc4)c4ccccc4)cc3)o2)cc1.[Br-].[Br-] [TFVP] | cellular membrane | 0.91 | cell membrane | 0.91 | 53 | better than Ce6, but not as efficient as Rose B angel
3 | 490 | 672 | 4.2 | 0.5 | 1.1 | 664 | 26.4 | ca. 200 nm | 683 | 31000 | C[n+]1ccc(C=Cc2ccc(-c3ccc(N(c4ccccc4)c4ccc(C(=C(c5ccccc5)c5ccccc5)c5ccccc5)cc4)cc3)o2)cc1.F[P-](F)(F)(F)(F)F [TPE-TFPy] | lysosome | 0.90 | lyso some | 0.90 | 15 | much higher than Rose Bangel
